According to patent US20050256132A1, “Use of ER selective NF-kB inhibitors for the treatment of sepsis” (priority 2003, published 2005):
Values joined by “and” are separate entries in the source; they are usually repeats but may differ in a detail not shown here. Identical values can stand only once.

Experiments:
Type in all cases: cell-based, human
ERβ = test: Reporter activity in HAECT-1 cells expressing ERβ; settings: FIG. 1C
Method: (A) The effect of compound 67 on NF-κB mediated luciferase reporter activity in HAECT-1 cells expressing ERα. […] (C) The effect of compound 67 on the human IL-6 promoter luciferase reporter activity in HAECT-1 cells expressing either ERα (squares) or ERβ (diamonds). (D) The remaining lysate from (A) was used to determine CK activity.
(§1) HAECT-1 cells (Chadwick C C, et al., Proc Natl Acad Sciences, 2005, 102(7): 2543-2548) were cultured in EGM (GIBCO, Rockville, Md.) containing 10% FBS, 1% GlutaMAX and 0.1% Antimycotic-Antibiotic in Falcon T-175 culture flasks at 34° C. in 5% CO2 and infected for four hours with Ad5-wt-ER virus. After overnight recovery, the cells were infected for 2 hours with the Ad5-3x(NFκB).Luc or Ad5-IL6.Luc virus. Compound 67 and 2 ng/ml IL-1 were added to the cells for 15-20 h and the cell lysate was assayed for luciferase activity and evaluated for CK expression (Stanbio Laboratories, Texas). The values are reported as mean±SEM with n=4 from at least 3 independent experiments.

IL-6 = IL-6 expression (ELISA) in Ad5-wt-ERα infected HAECT-1 cells (Table 1)
Creatine Kinase = test: Creatine kinase expression in Ad5-wt-ERα infected HAECT-1 cells (Table 1); settings: relative to the maximal stimulation observed with E2
Method: (§2) T-175 flasks of 100% confluent HAECT-1 cells (immortalized human aortic endothelial cells) were washed with 8 mL of HBSS (HEPES buffered saline solution) and infected for four hours with 6 mL of a 1:10 dilution of Ad5-wt-hERα virus (an adenovirus transfection vector that mediates CMV promoter driven expression of human ERα) in phenol red free Endothelial Cell Basal medium (Clonetics, San Diego Calif., Catalog # CC-3129) containing 0.25% bovine serum albumin (EBM-BSA). After four hours, cells were washed with EBM-BSA and incubated overnight in the same medium. Following overnight incubation, cells were washed with EBM-BSA and infected for 2 hours with 6 mL of a 1:10 dilution of Ad5-3x(NF-κB).Luc virus (Adenovirus luciferase expression vector driven by 3 repeats of the MHC NF-κb site 5′ to the thymidine kinase promoter) in EBM-BSA. […]
(§3) ERα infected HAECT-1 cells or control cells were thawed, diluted 42× in warm EBM-BSA, plated into 96-well plates at 0.1 mL/well and incubated for 4 hours at 34° C. […] Luciferase was determined on a Wallac Victor Luminometer (Gaithersburg, Md.) using 10 μL of lysate and mixing with 100 μL of Promega Luciferase Assay reagent. Creatine kinase was determined from the rate of increase in A340 following addition of 100 μL of CK assay reagent (Sigma, cat. No 47-10) to the remainder of the cell lysate. […]

NF-κB = test: IL-1β stimulated NF-κB reporter activity in ERα expressing HAECT-1 cells; settings: ERα expressing HAECT-1 cells, FIG. 1A
Method: as §1

ER/NF-κB = ER/NF-κB luciferase reporter in Ad5-wt-ERα infected HAECT-1 cells (Table 1); settings: relative to the maximal inhibition observed with E2
Method: as §2, §3

In the case of `COc1ccccc1[C@H](c1cccc2ccccc12)[C@@](C)(C#N)C(=O)N1CCC(c2cccc(C(F)(F)F)c2)CC1` [Example 67, (S,S)-3-(2-methoxyphenyl)-2-methyl-3-(1-naphthyl)-2-({4-[3-(trifluoromethyl)phenyl]piperidin-1-yl}carbonyl)propanenitrile], the “inhibition of NF-κB transcriptional activity in the presence of ERβ” value (ERβ) is reported as “little inhibition”, the IC50 (IL-6; Homo sapiens, HAECT1, Ad5-wt-ERα infected HAECT-1 cells, IL-1 stimulated, read-out: Interleukin-6 IC50) is reported as 0.035 µM and the “Interleukin-6 Efficacy” value (IL-6; relative to the maximal inhibition observed with E2) is reported as 45%. The “Creatine Kinase Efficacy” value (Creatine Kinase) was 41% and 58%, the “efficacy compared with E2, NF-κB reporter” value (NF-κB) was 94% and the IC50 (NF-κB; Homo sapiens, HAECT1) was 0.122 µM. The “ER/NFκB Efficacy” value (ER/NF-κB) was 100% and 86% and 90% and 92%.
